Key:
[1] = tested on: Cladosporium resinae glucoamylase S; test: Kinetic constants of glucoamylases (release of glucose from substrate); type: biochemical, Cladosporium resinae (ATCC No. 20495); settings: Table VI
[2] = tested on: Aspergillus niger glucoamylase II; test: as above; type: biochemical; settings: Table VI
Description: In assaying the rate of release of glucose from starch, pullulan or maltose, enzyme solution (culture solution) (0.1 ml) undiluted or diluted up to 100-fold, was incubated with substrate solution (0.5 ml) for 5 to 20 minutes at 37° C. […]. This reaction was terminated and the color developed by adding 50% HCl solution (2 ml). Substrates employed were pullulan, maltose and J. T. Baker Starch (Lintner) Soluble all at 5 mg/ml concentration and in 0.1 M sodium acetate buffer pH 4.3. α-amylase was assayed by the method described in Marshall, J.J., et al, Clinica Chemica Acta, 76, 277 (1977).
The relative rates of hydrolysis of several glucooligosaccharides and polysaccharides are shown in Table V based upon data shown in FIG. 6-11. Results are compared to those obtained using Aspergillus niger glucoamylase II. […] Table VI provides the kinetic constants of the Cladosporium resinae glucoamylases and Asperigillus niger glucoamylase.

OC[C@H]1O[C@H](O[C@H]2[C@H](O)[C@@H](O)C(O)O[C@@H]2CO)[C@H](O)[C@@H](O)[C@@H]1O (mixture of isomers) [Maltose]
VMAX [1]: 2.9 μmoles glucose released per mi | VMAX [2]: 4.8 μmoles glucose released per mi

Source: patent US4318989A, “Starch-degrading enzymes from Cladosporium resinae” (Lifeline Products, Inc., priority 1980, dated 1982)
